Measurements reported in ChEMBL document CHEMBL3885861, “Open TG-GATES”.

Species on record: Rattus norvegicus
Assay: Open TG-GATES - Regimen: Single
Format: toxicity, organism-based, Sprague-Dawley
Parameters: regimen Single, gender Male, age 6 weeks
Conditions: in vivo, po, 0 mg/kg, route gavage, dose level Control; for APTT / Bas / Eos / Fbg / Hb / Ht / Lym / MCH / MCHC / MCV / Mono / Neu / PT / Plat / RBC / Ret / WBC: tissue Blood; for KIDNEY_L / KIDNEY_R / KIDNEY_TOTAL: tissue Kidney; for LIVER: tissue Liver; for ALP / ALT / AST / CRE / DBIL / GLC / IP / K / LDH / Na / PL / RALB / TBIL / TC / TG / TP / gamma-GTP: tissue Plasma

**Q.** What does the source list for `CC(C)Cc1ccc(C(C)C(=O)O)cc1` (centres undefined) [IBUPROFEN]?
**A.** TERMINAL_BW (3 h): 204.9 g; APTT (3 h): 21.3 s; Bas (3 h): 0%; Eos (3 h): 1%; Fbg (3 h): 277 mg/dL; Hb (3 h): 13.2 g/dL; Ht (3 h): 38.4%; Lym (3 h): 72.8%; MCH (3 h): 21.5 pg; MCHC (3 h): 34.3%; MCV (3 h): 62.7 fL; Mono (3 h): 2%; Neu (3 h): 23.6%; PT (3 h): 15.8 s; Plat (3 h): 113 x10_4/uL; RBC (3 h): 612.8 x10_4/ul; Ret (3 h): 7.9%; WBC (3 h): 79.6 x10_2/uL; KIDNEY_L (3 h): 0.9 g; KIDNEY_R (3 h): 1 g; KIDNEY_TOTAL (3 h): 1.9 g; LIVER (3 h): 9.3 g; ALP (3 h): 1578.8 IU/L; ALT (3 h): 42.4 IU/L; AST (3 h): 81.8 IU/L; CRE (3 h): 0.2 mg/dL; DBIL (3 h): 0 mg/dL; GLC (3 h): 183 mg/dL; IP (3 h): 8.2 mg/dL; K (3 h): 4 meq/L; LDH (3 h): 274 IU/L; Na (3 h): 142 meq/L; PL (3 h): 130.4 mg/dL; RALB (3 h): 3 g/dL; TBIL (3 h): 0.018 mg/dL; TC (3 h): 72.6 mg/dL; TG (3 h): 51 mg/dL; TP (3 h): 5.4 g/dL; gamma-GTP (3 h): 1.2 IU/L; TERMINAL_BW (6 h): 200 g; Bas (6 h): 0%; Eos (6 h): 0.8%; Fbg (6 h): 288.8 mg/dL; Hb (6 h): 13.6 g/dL; Ht (6 h): 40%; Lym (6 h): 82.2%; MCH (6 h): 21.7 pg; MCHC (6 h): 34%; MCV (6 h): 63.8 fL; Mono (6 h): 1.8%; PT (6 h): 15.9 s; Plat (6 h): 118.6 x10_4/uL; RBC (6 h): 627 x10_4/ul; Ret (6 h): 7.8%; WBC (6 h): 96.9 x10_2/uL; KIDNEY_L (6 h): 0.9 g; KIDNEY_R (6 h): 0.9 g; KIDNEY_TOTAL (6 h): 1.9 g; LIVER (6 h): 8.8 g; ALP (6 h): 1383.4 IU/L; ALT (6 h): 39.6 IU/L; AST (6 h): 75.4 IU/L; CRE (6 h): 0.2 mg/dL; DBIL (6 h): 0 mg/dL; GLC (6 h): 178 mg/dL; IP (6 h): 8.9 mg/dL; K (6 h): 4.2 meq/L; LDH (6 h): 236.2 IU/L; Na (6 h): 140.6 meq/L; PL (6 h): 132.2 mg/dL; RALB (6 h): 2.9 g/dL; TBIL (6 h): 0.028 mg/dL; TC (6 h): 73.2 mg/dL; TG (6 h): 69.8 mg/dL; TP (6 h): 5.4 g/dL; gamma-GTP (6 h): 1.2 IU/L; TERMINAL_BW (9 h): 198.1 g; APTT (9 h): 23.4 s; Bas (9 h): 0%; Eos (9 h): 0.6%; Fbg (9 h): 287 mg/dL; Hb (9 h): 13 g/dL; Ht (9 h): 38.7%; Lym (9 h): 79.6%; MCH (9 h): 21.6 pg; MCHC (9 h): 33.8%; MCV (9 h): 64 fL; Mono (9 h): 1.8%; Neu (9 h): 17%; PT (9 h): 15.9 s; Plat (9 h): 125.1 x10_4/uL; RBC (9 h): 604.6 x10_4/ul; Ret (9 h): 7.4%; WBC (9 h): 76.6 x10_2/uL; KIDNEY_L (9 h): 0.9 g; KIDNEY_R (9 h): 0.9 g; KIDNEY_TOTAL (9 h): 1.8 g; LIVER (9 h): 8.2 g; ALP (9 h): 1448.2 IU/L; ALT (9 h): 36.6 IU/L; AST (9 h): 73.2 IU/L; CRE (9 h): 0.2 mg/dL; DBIL (9 h): 0.006 mg/dL; GLC (9 h): 178 mg/dL; IP (9 h): 9.6 mg/dL; K (9 h): 4.1 meq/L; Na (9 h): 141.4 meq/L; PL (9 h): 130.4 mg/dL; RALB (9 h): 2.9 g/dL; TBIL (9 h): 0.026 mg/dL; TC (9 h): 72.8 mg/dL; TG (9 h): 54.4 mg/dL; TP (9 h): 5.5 g/dL; gamma-GTP (9 h): 1.2 IU/L; TERMINAL_BW (24 h): 213.6 g; APTT (24 h): 20.3 s; Bas (24 h): 0%; Eos (24 h): 1.2%; Fbg (24 h): 306 mg/dL; Hb (24 h): 13.1 g/dL; Ht (24 h): 38.6%; Lym (24 h): 79.8%; MCH (24 h): 21.4 pg; MCHC (24 h): 33.8%; MCV (24 h): 63.5 fL; Mono (24 h): 3.2%; Neu (24 h): 15.2%; PT (24 h): 16.5 s; Plat (24 h): 124.1 x10_4/uL; RBC (24 h): 609.8 x10_4/ul; Ret (24 h): 7.4%; WBC (24 h): 117.7 x10_2/uL; KIDNEY_L (24 h): 0.9 g; KIDNEY_R (24 h): 0.9 g; KIDNEY_TOTAL (24 h): 1.8 g; LIVER (24 h): 10.1 g; ALP (24 h): 1790.4 IU/L; ALT (24 h): 47.2 IU/L; AST (24 h): 77.2 IU/L; CRE (24 h): 0.2 mg/dL; DBIL (24 h): 0 mg/dL; GLC (24 h): 198.8 mg/dL; IP (24 h): 7.3 mg/dL; K (24 h): 4.5 meq/L; LDH (24 h): 235.4 IU/L; Na (24 h): 141.6 meq/L; PL (24 h): 145.8 mg/dL; RALB (24 h): 3.1 g/dL; TBIL (24 h): 0 mg/dL
